Consider three compounds from patent US11034717B2, “Farnesoid X receptor modulators” (Intercept Pharmaceuticals, Inc., priority 2015, dated 2021).

Series [1] is described as follows: 1-octanol-water partition coefficient of ionized species. The class given is physicochemical. On the procedure: (§1) Physiochemical properties of a compound of the invention such as water solubility, critical micellar concentration, surface tension, and LogPA were determined using methods known in the art.
Series [2] has as its system HepG2 cells. Briefly: In-vitro cytotoxicity, ATP content. It is filed as cell-based. The source says: To evaluate in-vitro cytotoxicity of a compound of the invention, two different assay methods are employed. The assays evaluate cell viability by measuring ATP levels and cytotoxicity by measuring LDH release. […] It has been called the “molecular unit of currency” when it comes to intracellular energy transfer.
(§2) An additional method to determine the viability of cells is to detect the integrity of the membrane that defines the cellular compartmentalization. Measuring the leakage of components out of the cytoplasm, in damaged cell membranes, indicates loss of membrane integrity, and LDH release is the method used to determine common toxicity in cells. HepG2 cells are treated with a compound of the invention, and serial dilutions are performed. LCA dilutions are added to the plated cells as assay controls together with no-cell and untreated cells. The assay is performed in triplicate for each test compound concentration.

The target in series [3] is hERG potassium channel (Homo sapiens (Human), UniProt Q12809). Nature of the series: biochemical. The settings on record: for hERG potassium channel inhibition (in words): Table 7 footnote. The source says:
The assay is based on the assumption that the hERG potassium channel activity contributes to the resting membrane potential in permanently transfected cells, and thus a block of hERG channels should result in a depolarization of the cell membrane. The assay is designed to identify potential hERG channel blockers by producing data that accurately correlates with patch-clamp electrophysiology studies.
Membrane preparations from Chinese hamster ovary cells stably transfected with hERG potassium channel are used to evaluate the potential inhibitory effect of a compound of the invention on this channel using the Predictor™ fluorescence polarization assay. Reduction of membrane polarization as a result of inhibition of the hERG potassium channel is directly correlated with a reduction of the fluorescence polarization (FP).
An assay window more than 100 mP (millipolarization) is considered good. The non-linear regression curves are obtained by GraphPad Prism (GraphPad Software Inc.) analysis, to calculate the IC50 values.
For orientation: The hERG channel carries a current that helps repolarise heart muscle cells.

Series [4] concerns the target mTGR5 (Mus musculus (Mouse), UniProt Q80SS6). Briefly: Cross species TGR5 activity, CHO cells, mouse. The class given is cell-based.
Series [5] relates to nuclear receptors LXRP, PXR, CAR, PPARα, PPARγ, RAR, RARα, VDR, TR, PR, RXR, GR, and ER. Briefly: Nuclear receptor selectivity profile (AlphaScreen). It is filed as biochemical. The following applies: for Activation of nuclear receptor panel, agonist mode: dose response to 200 μM; for Activity on nuclear receptor panel, antagonist mode: fixed concentration at 10 μM. On the procedure: Using the AlphaScreen assay, the selectivity of a compound of the invention against the following nuclear receptors involved in the metabolic pathways can be evaluated: LXRP, PXR, CAR, PPARα, PPARα, PPARγ, RAR, RARα, VDR, TR, PR, RXR, GR, and ER.
Compounds L1, 3, 5, 6 and 7 were tested against the panel of available nuclear receptor in both agonist and antagonist mode.

In series [6] the target is rTGR5 (Rattus norvegicus (Rat), UniProt Q80T02). Nature of the series: Cross species TGR5 activity, CHO cells, rat. The class given is cell-based.
The target of series [7] is CYP2E1 (Homo sapiens (Human), UniProt P05181). Briefly: CYP450 inhibition, fluorescent substrate, recombinant baculosomes. The class given is in vitro ADME. On the procedure: (§3) To evaluate the potential of a compound of the invention for drug-drug interactions, the six main CYP450 isoforms (CYP1A2, CYP2C9, CYP2C19, CYP2D6, CYP2E1, CYP3A4) are investigated (Obach, et al., J Pharmacol. Exp. Ther, 2006, 316, 336-348).
(§4) To determine interaction between a compound of the invention and cytochrome P450 enzymes, the compound of the invention is analyzed by its capacity to inhibit (or not) the production of a fluorescent signal, using recombinant CYP450 proteins (baculosomes; Invitrogen), substrates and inhibitors (Bidstrup, et al., Br J Clin. Pharmacol, 2003, 56, 305-14). As a positive control, a selective inhibitor for each CYP450 isoform is tested in the same plate.

The target in series [8] is CYP3A4 (Homo sapiens (Human), UniProt P08684). The description is as above. The class given is in vitro ADME. The protocol: as §3, §4
Series [9] has as its target CYP2C19 (Homo sapiens (Human), UniProt P33261). Described as above. It is filed as in vitro ADME. The protocol: as §3, §4
The target in series [10] is CYP2C9 (Homo sapiens (Human), UniProt P11712). The description is as above. The class given is in vitro ADME. On the procedure:
as §3, §4

In series [11] the target is CYP2D6 (Homo sapiens (Human), UniProt P10635). The description is as above. The class given is in vitro ADME. The protocol: as §3, §4
In series [12] the target is CYP1A2 (Homo sapiens (Human), UniProt P05177). The description is as above. It is filed as in vitro ADME. On the procedure:
as §3, §4

The test system of series [13] is dTGR5. Nature of the series: Cross species TGR5 activity, CHO cells, dog. It is filed as cell-based.
Series [14] has as its system HepG2 cells. Briefly: In-vitro cytotoxicity, membrane integrity (LDH release). The class given is cell-based.
From the text: To evaluate in-vitro cytotoxicity of a compound of the invention, two different assay methods are employed. The assays evaluate cell viability by measuring ATP levels and cytotoxicity by measuring LDH release. Adenosine Triphosphate (ATP) nucleotide represents the source of energy at the basic molecular level, as it is a multifunctional molecule that is used in every cell as a coenzyme and is an integral part of the mitochondrial DNA (Kangas, et al., Medical Biology, 1984, 62, 338-343; Crouch, et al., J Immunol. Methods, 1993, 160, 81-88; and Petty, et al., J Biolumin. Chemilumin. 1995, 10, 29-34). It has been called the “molecular unit of currency” when it comes to intracellular energy transfer.
as §2
On the technique in general: Release of lactate dehydrogenase indicates damage to the cell membrane.

The subject of series [15] is FXR target genes: BSEP, SHP, OSTβ and CYP7A1. Briefly: FXR target gene panel, quantitative RT-PCR in HepG2 cells. The class given is cell-based. The following applies: stimulation for 18 hours. On the procedure:
To evaluate the capacity of a compound of the invention to modulate FXR target genes, quantitative RT-PCR assays are performed. HepG2 cells are selected as a relevant cell line to determine whether a compound of the invention can regulate the endogenous FXR genetic network. The ability of a compound of the invention to induce FXR target genes is assessed by isolating total RNA from cells treated overnight with 1 μM of compounds A, B, and a compound of the invention.
FXR regulates the expression of several target genes involved in BA homeostasis. Briefly, FXR plays a central role in several metabolic pathways, including i.e., lipid metabolism, bile-acids metabolism, and carbohydrate metabolism. Regarding gene expression profiling, the genes encoding proteins involved in lipid metabolism include, e.g., APOCII, APOE, APOAI, SREBP-1C, VLDL-R, PLTP, and LPL; the genes encoding proteins involved in bile-acids metabolism include, e.g., OSTα/β, BSEP, MRP2, SHP, CYP7A1, FGF19, SULT2A1, and UGT2B4; and the genes encoding proteins involved in carbohydrate metabolism include, e.g., PGCla, PEPCK, and GLUT2. FXR target genes: BSEP, SHP, OSTβ and CYP7A1 were evaluated following stimulation of Compounds 3, 5, 6, and 7 on HepG2 cells for 18 hours. Compound L1 was used as a control.

The target of series [16] is T1, hTGR5 (Homo sapiens (Human), UniProt Q8TDU6). Nature of the series: HTR-FRET intracellular cAMP assay in NCI-H716 cells. The class given is cell-based. The settings on record: Table 1; Ref LCA.
Series [17] in a line: Critical micellar concentration. It is filed as physicochemical. The settings on record: determined in […] NaCl water solution. The protocol: as §1
For series [18], the target named is T1, hTGR5. Nature of the series: Cross species TGR5 activity, CHO cells, human. It is filed as cell-based.
The mark [19] stands for this setting: read-out: CYP3A4 (Green substrate) IC50, Green substrate.

Molecules are shown by their SMILES. Read-outs that look alike come from different tables or passages of the source. Where only a bound is given, the exact number is not on record here.

Chain of CYP2C19 (P33261 whole entry): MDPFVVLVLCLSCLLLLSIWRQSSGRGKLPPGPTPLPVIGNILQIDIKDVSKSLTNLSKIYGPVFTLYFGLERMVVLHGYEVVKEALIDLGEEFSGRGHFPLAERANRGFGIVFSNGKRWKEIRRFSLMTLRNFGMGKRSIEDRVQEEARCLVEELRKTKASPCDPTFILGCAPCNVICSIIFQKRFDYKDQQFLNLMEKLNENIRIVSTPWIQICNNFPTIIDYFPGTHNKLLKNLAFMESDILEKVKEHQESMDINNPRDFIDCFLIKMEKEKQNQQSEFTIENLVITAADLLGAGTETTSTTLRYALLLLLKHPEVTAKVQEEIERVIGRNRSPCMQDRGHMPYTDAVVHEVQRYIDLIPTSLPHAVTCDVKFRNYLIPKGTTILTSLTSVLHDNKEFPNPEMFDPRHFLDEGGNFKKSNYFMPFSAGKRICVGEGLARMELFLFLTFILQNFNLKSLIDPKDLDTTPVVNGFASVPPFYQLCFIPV
Chain of CYP2C9 (P11712 whole entry): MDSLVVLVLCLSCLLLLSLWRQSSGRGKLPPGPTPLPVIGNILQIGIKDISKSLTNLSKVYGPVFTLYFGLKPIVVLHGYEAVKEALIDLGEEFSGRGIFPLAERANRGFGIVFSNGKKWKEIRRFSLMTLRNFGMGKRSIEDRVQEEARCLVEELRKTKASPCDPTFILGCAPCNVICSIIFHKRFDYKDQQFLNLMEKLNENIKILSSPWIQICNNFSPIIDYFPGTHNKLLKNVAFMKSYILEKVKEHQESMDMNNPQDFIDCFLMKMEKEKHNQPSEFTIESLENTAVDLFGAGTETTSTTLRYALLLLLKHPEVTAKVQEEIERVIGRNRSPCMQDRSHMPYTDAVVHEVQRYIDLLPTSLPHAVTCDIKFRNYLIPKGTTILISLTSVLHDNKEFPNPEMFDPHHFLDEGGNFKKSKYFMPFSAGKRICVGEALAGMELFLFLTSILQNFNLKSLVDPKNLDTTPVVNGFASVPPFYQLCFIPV
T1 sequence (Q8TDU6 whole entry): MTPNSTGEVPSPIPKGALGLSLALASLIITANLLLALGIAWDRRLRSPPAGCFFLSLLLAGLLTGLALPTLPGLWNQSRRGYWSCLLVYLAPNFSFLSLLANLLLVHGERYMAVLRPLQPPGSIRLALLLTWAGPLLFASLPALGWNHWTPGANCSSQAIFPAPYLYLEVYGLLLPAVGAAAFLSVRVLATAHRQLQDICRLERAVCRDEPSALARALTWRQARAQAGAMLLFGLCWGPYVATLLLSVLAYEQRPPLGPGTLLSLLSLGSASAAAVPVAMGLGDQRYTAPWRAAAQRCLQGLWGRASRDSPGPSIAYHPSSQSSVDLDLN
Chain of rTGR5 (Q80T02 whole entry, canonical isoform): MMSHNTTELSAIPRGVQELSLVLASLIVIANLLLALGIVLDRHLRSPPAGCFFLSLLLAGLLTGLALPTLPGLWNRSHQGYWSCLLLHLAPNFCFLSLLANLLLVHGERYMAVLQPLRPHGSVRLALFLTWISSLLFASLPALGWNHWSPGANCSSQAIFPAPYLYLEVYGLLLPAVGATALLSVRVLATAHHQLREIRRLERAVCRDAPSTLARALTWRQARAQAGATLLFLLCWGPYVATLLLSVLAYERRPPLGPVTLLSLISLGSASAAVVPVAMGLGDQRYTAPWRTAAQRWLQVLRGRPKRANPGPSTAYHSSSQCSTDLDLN
Chain of hERG potassium channel (Q12809 whole entry): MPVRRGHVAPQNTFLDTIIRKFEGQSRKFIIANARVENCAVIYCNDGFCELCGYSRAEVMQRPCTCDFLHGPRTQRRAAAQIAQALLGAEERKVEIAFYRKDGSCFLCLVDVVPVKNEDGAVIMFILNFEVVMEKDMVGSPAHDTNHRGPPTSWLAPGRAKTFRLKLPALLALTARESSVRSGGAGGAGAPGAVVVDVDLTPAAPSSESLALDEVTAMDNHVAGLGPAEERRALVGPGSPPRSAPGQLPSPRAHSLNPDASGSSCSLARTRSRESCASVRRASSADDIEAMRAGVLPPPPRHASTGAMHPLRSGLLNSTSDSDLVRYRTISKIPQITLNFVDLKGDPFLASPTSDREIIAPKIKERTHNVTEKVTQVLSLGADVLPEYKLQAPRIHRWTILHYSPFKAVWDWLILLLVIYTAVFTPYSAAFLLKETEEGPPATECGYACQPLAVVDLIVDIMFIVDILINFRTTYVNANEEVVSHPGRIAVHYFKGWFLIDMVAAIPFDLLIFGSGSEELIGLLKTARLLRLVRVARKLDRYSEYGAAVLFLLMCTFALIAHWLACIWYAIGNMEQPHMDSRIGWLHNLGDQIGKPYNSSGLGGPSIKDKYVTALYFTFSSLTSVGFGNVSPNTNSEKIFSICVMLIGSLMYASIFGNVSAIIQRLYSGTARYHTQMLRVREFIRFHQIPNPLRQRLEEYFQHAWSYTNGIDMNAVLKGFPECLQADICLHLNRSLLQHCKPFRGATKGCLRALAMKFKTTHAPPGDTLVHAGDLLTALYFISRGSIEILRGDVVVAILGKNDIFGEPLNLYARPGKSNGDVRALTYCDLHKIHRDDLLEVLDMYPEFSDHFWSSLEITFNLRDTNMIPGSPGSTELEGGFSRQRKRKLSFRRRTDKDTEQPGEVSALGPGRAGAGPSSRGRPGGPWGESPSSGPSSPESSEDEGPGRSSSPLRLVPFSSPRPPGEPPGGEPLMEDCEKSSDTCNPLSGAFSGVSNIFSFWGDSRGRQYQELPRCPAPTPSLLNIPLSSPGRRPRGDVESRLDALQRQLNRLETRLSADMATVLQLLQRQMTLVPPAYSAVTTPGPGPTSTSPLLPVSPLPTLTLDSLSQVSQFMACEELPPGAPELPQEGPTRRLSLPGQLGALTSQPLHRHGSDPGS
Chain of CYP2D6 (P10635 whole entry): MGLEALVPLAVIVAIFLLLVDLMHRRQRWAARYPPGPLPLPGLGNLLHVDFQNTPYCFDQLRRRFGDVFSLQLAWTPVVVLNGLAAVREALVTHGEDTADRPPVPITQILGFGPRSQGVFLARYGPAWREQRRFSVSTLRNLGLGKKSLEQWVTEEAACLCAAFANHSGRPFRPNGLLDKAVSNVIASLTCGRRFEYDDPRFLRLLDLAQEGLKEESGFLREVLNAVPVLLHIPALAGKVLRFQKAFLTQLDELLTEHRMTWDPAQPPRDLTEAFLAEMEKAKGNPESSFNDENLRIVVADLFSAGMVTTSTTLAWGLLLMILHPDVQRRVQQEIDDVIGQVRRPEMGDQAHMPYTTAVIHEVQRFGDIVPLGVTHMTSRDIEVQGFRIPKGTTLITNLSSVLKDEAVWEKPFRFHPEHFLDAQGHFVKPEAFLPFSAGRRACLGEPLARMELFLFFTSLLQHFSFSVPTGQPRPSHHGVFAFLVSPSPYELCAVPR
Chain of CYP3A4 (P08684 whole entry): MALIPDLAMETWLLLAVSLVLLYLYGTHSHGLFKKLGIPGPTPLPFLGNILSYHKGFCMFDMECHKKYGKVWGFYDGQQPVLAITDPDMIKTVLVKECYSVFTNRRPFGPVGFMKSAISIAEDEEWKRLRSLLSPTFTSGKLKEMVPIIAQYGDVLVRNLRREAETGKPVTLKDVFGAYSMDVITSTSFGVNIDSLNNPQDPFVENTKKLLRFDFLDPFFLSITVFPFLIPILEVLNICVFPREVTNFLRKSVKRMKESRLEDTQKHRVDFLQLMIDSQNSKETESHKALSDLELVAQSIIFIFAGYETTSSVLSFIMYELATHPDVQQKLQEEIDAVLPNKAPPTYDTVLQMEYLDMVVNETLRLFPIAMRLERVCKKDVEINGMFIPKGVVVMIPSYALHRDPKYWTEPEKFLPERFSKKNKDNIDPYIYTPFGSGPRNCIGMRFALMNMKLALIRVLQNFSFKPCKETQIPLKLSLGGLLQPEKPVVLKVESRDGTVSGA
Chain of mTGR5 (Q80SS6 whole entry): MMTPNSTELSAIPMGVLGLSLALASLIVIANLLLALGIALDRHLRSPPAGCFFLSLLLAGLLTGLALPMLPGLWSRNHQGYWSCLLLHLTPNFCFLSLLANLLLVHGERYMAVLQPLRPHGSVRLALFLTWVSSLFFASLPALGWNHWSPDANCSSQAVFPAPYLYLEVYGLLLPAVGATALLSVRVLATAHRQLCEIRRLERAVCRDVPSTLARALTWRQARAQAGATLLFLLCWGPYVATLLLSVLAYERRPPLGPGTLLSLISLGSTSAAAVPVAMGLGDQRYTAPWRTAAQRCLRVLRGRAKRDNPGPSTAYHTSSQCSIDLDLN
Chain of CYP1A2 (P05177 whole entry): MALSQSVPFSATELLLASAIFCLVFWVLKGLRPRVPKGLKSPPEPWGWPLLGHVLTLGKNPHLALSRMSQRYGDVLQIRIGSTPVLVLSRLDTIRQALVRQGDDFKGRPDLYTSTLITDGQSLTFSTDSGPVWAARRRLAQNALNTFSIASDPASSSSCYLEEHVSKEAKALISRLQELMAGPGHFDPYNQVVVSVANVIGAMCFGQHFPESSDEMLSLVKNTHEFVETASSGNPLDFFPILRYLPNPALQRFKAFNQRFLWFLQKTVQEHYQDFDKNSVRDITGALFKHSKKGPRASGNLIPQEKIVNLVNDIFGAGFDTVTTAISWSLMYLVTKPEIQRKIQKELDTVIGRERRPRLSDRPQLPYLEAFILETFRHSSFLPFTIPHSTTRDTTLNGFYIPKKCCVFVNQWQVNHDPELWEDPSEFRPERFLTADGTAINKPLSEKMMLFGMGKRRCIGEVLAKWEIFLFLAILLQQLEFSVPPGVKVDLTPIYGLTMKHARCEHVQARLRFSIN

`CC[C@H]1[C@@H](O)C2C3CC[C@H]([C@H](C)CCC(=O)O)[C@@]3(C)C[C@H](O)C2[C@@]2(C)CC[C@@H](O)C[C@@H]12` (stereo partly drawn) [Compound L1, reference compound]: in series [1], the “LogPA−: 1-octanol-water partition coefficient as ionized species” value (from here on “LogPA− … as ionized species”) is 0.84. The “ATP Content EC50” value in [2] (Table 5B, HepG2) was “No toxicity”. Moreover, the “hERG potassium channel inhibition (in words)” value in [3] was “Compounds L1, 3, 5, 6 and 7 did not inhibit hERG potassium channel”. Further, the IC50 in series [3] (read-out: hERG inhibition IC50, Table 7) was above 100 µM; in series [7] (read-out: CYP2E1 IC50), above 10 µM; in series [8] (Blue substrate, read-out: CYP3A4 (Blue substrate) IC50), above 10 µM; in [8] (Green substrate, read-out: CYP3A4 (Green substrate) IC50) it was above 10 µM; in [9] (read-out: CYP2C19 IC50), above 10 µM; in [10] (read-out: CYP2C9 IC50), above 10 µM. In addition, the half-maximal inhibitory concentration (IC50) in [11] (read-out: CYP2D6 IC50) and in series [12] was above 10 µM in each case. In addition, the “mTGR5 CHO EC50” value in [4] is “No activity”. Also, the “Activation of nuclear receptor panel, agonist mode” value (from here on “Activation”) in series [5] is given as “Neither compound activated any of the receptors”. For the same compound, the “Activity on nuclear receptor panel, antagonist mode” value (shortened to “Activity on nuclear receptor panel”) in [5] is on record as “Neither compound activated any of the receptors”. Besides, the “rTGR5 CHO EC50” value in [6] is reported as “No activity”. Also, in series [13], the “dTGR5 CHO EC50” value is “No activity”. For the same compound, the “Membrane Integrity (LDH measure) LC50” value in series [14] was “No toxicity”.
For the compound `CC[C@H]1[C@@H](O)C2C3CC[C@H]([C@H](C)CCOS(=O)(=O)[O-])[C@@]3(C)C[C@H](O)C2[C@@]2(C)CC[C@@H](O)C[C@@H]12.[Na+]` (stereo partly drawn) [Compound 3, 3α,7α,11β,23-tetrahydroxy-6α-ethyl-24-nor-5β-cholan-23-O-sulphate sodium salt], the “LogPA− … as ionized species” value in [1] stood at 0.12. In addition, the “Modulation of FXR target genes BSEP, SHP, OSTβ and CYP7A1” value in series [15] was “significantly bind to FXR in hepatic cells modulating FXR target genes”. Further, the “ATP Content EC50” value in [2] (Table 5A) was “No toxicity”. In addition, the concentration for half-maximal inhibition (IC50) was above 100 µM in series [3]; above 10 µM in series [7]; above 10 µM in series [8]; above 10 µM in series [8] (setting [19]); above 10 µM in series [9]; above 10 µM in series [10]. Moreover, the IC50 in series [11] and in series [12] was above 10 µM each time. The “hERG potassium channel inhibition (in words)” value in series [3] was “Compounds L1, 3, 5, 6 and 7 did not inhibit hERG potassium channel”. The EC50 in [4] is 3 ± 0.5 µM; in [16] it was 83 ± 7 µM; in [18] it was 5 ± 1 µM. In addition, the “CMC: Critical Micellar Concentration” value in series [17] worked out at 12.5 mM. Further, the “Activation” value in series [5] is “Neither compound activated any of the receptors”. The “Activity on nuclear receptor panel” value in [5] is reported as “Neither compound activated any of the receptors”. For the same compound, the “rTGR5 CHO EC50” value in series [6] is given as “No activity”. Besides, the “dTGR5 CHO EC50” value in [13] was “No activity”.
Turning to `CC[C@H]1[C@@H](O)C2C3CC[C@H]([C@H](C)CCCOS(=O)(=O)[O-])[C@@]3(C)C[C@H](O)C2[C@@]2(C)CC[C@@H](O)C[C@@H]12.[Na+]` (stereo partly drawn) [Compound 5, 3α,7α,11β-Trihydroxy-6α-ethyl-5β-cholan-24-O-sulphate, sodium salt], the “LogPA− … as ionized species” value in [1] was found to be 0.61. Besides, the “Modulation of FXR target genes BSEP, SHP, OSTβ and CYP7A1” value in [15] is “significantly bind to FXR in hepatic cells modulating FXR target genes”. In series [2] (Table 5A), the “ATP Content EC50” value is “No toxicity”. Besides, the IC50 in series [3] is above 100 µM; in series [7], above 10 µM; in series [8] it was above 10 µM; in [8] (setting [19]), above 10 µM; in series [9], above 10 µM; in series [10], above 10 µM. For the same compound, the IC50 in [11] and in series [12] was above 10 µM throughout. The “hERG potassium channel inhibition (in words)” value in series [3] was “Compounds L1, 3, 5, 6 and 7 did not inhibit hERG potassium channel”. For the same compound, the concentration for a half-maximal effect (EC50) turned out to be 4 ± 1 µM in [4], 78 ± 1 µM in series [16] and 3 ± 1 µM in series [18]. In addition, the “CMC: Critical Micellar Concentration” value in series [17] is 8.5 mM. The “Activation” value in series [5] is recorded as “Neither compound activated any of the receptors”. Besides, the “Activity on nuclear receptor panel” value in series [5] is “Neither compound activated any of the receptors”. Also, the “rTGR5 CHO EC50” value in [6] is “No activity”. In addition, the “dTGR5 CHO EC50” value in [13] is “No activity”.

In general, IC50 refers to the concentration that gives 50% inhibition. As a reminder, the EC50 is the concentration that produces a half-maximal response.
